In US4283328A, “Preparation of dehydropeptides” (Research Corporation, priority 1979, dated 1981):
*1 amine or outer side, *2 acyl side, *3 side chain or, on linkers, in order; H or OH if unused. Where a SMILES comes first, the peptide text is derived from it. [ ]: non-standard residue; d: D form. The star is where a group is joined. X1 = O=C(C(=Cc1ccccc1)N[*:1])[*:2]; Cbz = O=C(OCc1ccccc1)*

How the values were obtained:
[1] = system: angiotensin I converting enzyme; test: Inhibition of angiotensin I converting enzyme; type: biochemical
renin = test: Renin inhibition; type: biochemical
guinea pig ileum = test: Guinea pig ileum contraction assay
From the text: This analog can also be made by solid phase protein synthesis.

blood pressure = test: Guinea pig blood pressure test; type: in vivo; details: relative to BDK = 100%
α-chymotrypsin = test: Enzymolysis with chymotrypsin (stability to enzymatic hydrolysis); type: in vitro ADME
Protocol: (§1) One purpose in introducing unsaturation into a peptide chain is to increase the binding of the peptides to active sites and protect the peptide from enzymatic cleavage, e.g. hydrolysis, in the bloodstream, thus enhancing activity. One method of measuring the stability of peptides to enzymatic hydrolysis is to treat the peptides with chymotrypsin which is specific for phenyl bonds.
(§2) A solution of 46 mg of N-Carbobenzoxy-L-prolyl-dehydrophenylalanyl-L-phenylalanine in 4 ml of methanol/water (1:1) was diluted to 10 ml with a 0.05 N tris buffer solution (pH 8) containing 0.46 mg of α-chymotrypsin. After standing 2 hours at 37° in a constant temperature bath, a 0.5 ml sample was treated with 0.5 ml of a 1.25% acetone solution of ninhydrin.

[2] = as above; type: in vitro ADME; details: chymotrypsin; 2 hours at 37°, tris buffer pH 8; ninhydrin color; read-out: hydrolysis by α-chymotrypsin
Protocol: as §1, §2

Compound: CC(C)C[C@H](NC(=O)[C@H](Cc1c[nH]cn1)NC(=O)C(=Cc1ccccc1)NC(=O)[C@@H]1CCCN1)C(=O)O [tetrapeptide freed of the blocking group, H.Pro-ΔPhe-His-Leu.OH.2HBr]
- inhibition of angiotensin I converting enzyme [1]: inactive

Compound: COC(=O)[C@H](Cc1ccccc1)NC(=O)[C@@H](NC(=O)C(=Cc1ccccc1)NC(=O)[C@@H](N)CC(C)C)C(C)C [leudehydrophe-val-phe.OMe, Leucyl-dehydrophenylalanyl-valyl-phenylalanine methyl ester]
- inhibition of renin (renin): inhibits renin

Compound: N=C(N)NCCC[C@H](NC(=O)[C@H](Cc1ccccc1)NC(=O)[C@@H]1CCCN1C(=O)[C@H](CO)NC(=O)C(=Cc1ccccc1)NC(=O)CNC(=O)[C@@H]1CCCN1C(=O)[C@@H]1CCCN1C(=O)[C@@H](N)CCCNC(=N)N)C(=O)O [dehydro BDK, Arginyl-prolyl-prolyl-glycyl-dehydrophenylalanylseryl-prolyl-phenylalanyl-arginine] (H-RPPG[X1]SPFR-OH)
- increase in contraction, BDK as the standard at 100% (guinea pig ileum; guinea pig ileum, relative to BDK = 100%): 247.6%
- reduction of blood pressure, BDK as the standard at 100% (blood pressure; given intra-arterially): 277.7%
- decrease of blood pressure, BDK as the standard at 100% (blood pressure; given intravenously): 6250%

Compound: CC(C)C[C@H](NC(=O)[C@H](Cc1c[nH]cn1)NC(=O)C(=Cc1ccccc1)NC(=O)[C@@H]1CCCN1C(=O)OCc1ccccc1)C(=O)O [Z-Pro-ΔPhe-His-Leu.OH]
- inhibition of angiotensin I converting enzyme [1]: inhibit angiotensin I converting enzyme

Compound: O=C(N[C@@H](Cc1ccccc1)C(=O)O)C(=Cc1ccccc1)NC(=O)[C@@H]1CCCN1C(=O)OCc1ccccc1 [N-Carbobenzoxy-L-prolyl-dehydrophenylalanyl-L-phenylalanine]
- ninhydrin color formed after α-chymotrypsin treatment (α-chymotrypsin; 2 hours at 37°, tris buffer pH 8, methanol/water, compared with blank solution): matched that of a blank solution
- stability to chymotrypsin (α-chymotrypsin; treatment with chymotrypsin): stable to chymotrypsin

Compound: Tyr-DAla-Gly-ΔPhe-Met-NH2 Acetate
- activity in the guinea pig ileum contraction assay (guinea pig ileum): active

Compound: O=C(O)[C@H](Cc1ccccc1)NC(=O)[C@H](Cc1ccccc1)NC(=O)[C@@H]1CCCN1C(=O)OCc1ccccc1 [ZPro-Phe-Phe.OH, reference compound] (Cbz-Pro-Phe-Phe-OH)
- metabolised at 2 h [2]: 5%
